Data as given in patent publication US6613883B1, “Screening assays for compounds that cause apoptosis and related compounds” (The United States of America as represented by the …, priority 1994, dated 2003).
“Also recorded” adds a separate entry of the source.

Experiments:
[1] = system: normal primary human fibroblasts (C5RO); test: Apoptosis after microinjection of p53 expression vectors; format: cell-based; details: for effect of coinjected mutant p53 on induction of apoptosis by wt p53: expression vectors for wt and mutant p53 coinjected into normal human fibroblasts; for % apoptotic cells: normal fibroblasts (C5RO), of p53 positive cells; for % apoptotic cells / p53 localization (% cells) both / p53 localization (% cells) cytoplasmic / p53 localization (% cells) nuclei: 24 hr after microinjection; for p53 localization (% cells) both / p53 localization (% cells) cytoplasmic / p53 localization (% cells) nuclei: normal fibroblasts
[2] = system: XPB binding to mutant p53; test: Peptide inhibition of XPB binding to mutant p53; set-up: species or system human; details: data not shown
Description: (§1) The helicase motif III in XPB and the C-terminal region of p53 are both important regions that are involved in the binding of p53 to XPB. […] Incubation conditions for the binding assays and analysis of binding was then carried out as described in Example 2 herein.

[3] = target: T1, binding of p53 to XPB (Homo sapiens, UniProt P04637); test: Competitive inhibition by peptides of XPB binding to GST-p53-WT; details: peptide preincubated with GST-p53-WT 30 min on ice, 12-596 nM
T1 construct: was used for in vitro translation of full length XPB protein; made in house; host or cells: GST-p53-WT: Escherichia coli; XPB: cell-free in vitro transcription/translation (Promega)
Description: FIG. 4. Peptides corresponding to helicase motif III of XPB and the C-terminus of p53 prevent XPB from binding to GST-p53. Four different synthetic peptides were preincubated with 2 μg GST-p53WT for 30 minutes on ice before the addition of ^35S-labeled, in vitro-translated XPB for 60 min at RT. Peptide #464 corresponds to residues 464-478 of XPB (lanes 2-4; 12, 120, and 596 nM), peptide #479 corresponds to residues 479-493 of XPB (lanes 5-7; 12, 116, and 578 nM), peptide #99 corresponds to residues 100-115 of HBX (lanes 8-9; 111 and 554 nM), and peptide #p53cp corresponds to residues 367-387 of p53 (lanes 11-12; 85 and 424 nM).
as §1

[4] = target: T2, XPD helicase within BTF2-TFIIH (Homo sapiens, UniProt P18074); test: BTF2-TFIIH helicase assay, 5'→3' (XPD); format: biochemical; details: 6, 18, 120 ng wild-type p53 or 7, 21, 140 ng p53-273H
T2 construct: XPD and XPB helicase activity within the native BTF2-TFIIH complex; endogenous in cells; host or cells: HeLa cell nuclear extract (HAP fraction)

[5] = target: T3, XPB helicase within BTF2-TFIIH (Homo sapiens, UniProt P19447); test: BTF2-TFIIH helicase assay, 3'→5' (XPB); format: biochemical; details: 6, 18, 120 ng wild-type p53 or 7, 21, 140 ng p53-273H
T3 construct: XPD and XPB helicase activity within the native BTF2-TFIIH complex; endogenous in cells; host or cells: HeLa cell nuclear extract (HAP fraction)

[6] = target: T4, wild type p53 (Homo sapiens, UniProt P04637); test: Binding of XPB proteins with deletion mutations to wild type p53; details: for binding of in vitro-translated XPB deletion mutant to GST-p53-WT: compared with wild-type XPB
T4 construct: made in house; host or cells: Escherichia coli
Description: FIGS. 3A, 3B and 3C. p53 binds to XPB helicase motifs Ia, II and III. […] Twenty percent of the original input was loaded in parallel as the references (lanes 1-3). B. In vitro-translated wild-type p53 protein was mixed with GSH-beads loaded with 4 μg of GST (lane 2), 2 μg of GST-XPB (WT) (lane 3), or 2 μg of GST-XPB (truncated XPB with 80-480 residues) (lane 4). Bound proteins were analyzed on SDS/PAGE. The original input (100%) was included as a reference (lane 1). C. Schematic representation of the full-length or the truncated XPB proteins used in binding assays. Black boxes in the bars are the putative helicase motifs conserved across the helicase superfamily. The small open bar from residues 354 to 496 covers the region which binds p53, with the closed bar in the right side covering motif III representing the higher affinity binding site. Helicase motif 1, residues 337-351; motif Ia, residues 361-374; motif II, residues 434-446; motif III, residues 462-480; motif IV, residues 576-592; motif V, residues 601-621; motif VI, residues 630-649.
The binding assays were done in 500 μl IP buffer (50 mM Tris-HCl, pH8.0/120 mM NaCl/0.5% Nonidet P-40) containing the ^35S-labeled, in vitro translated proteins and GST fusion proteins loaded on GSH-beads at RT for 60 min. After washing five times with IP buffer, the bound proteins were released by boiling the beads in Laemmli buffer for 5 min, separated by SDS-PAGE, and visualized by fluolorography, as described in Wang, X. W., et al. (1994) Proc. Natl. Acad. Sci., USA 91:2230-2234.
XPB contains 7 putative helicase motifs (FIG. 3C, black bars) which are conserved among the helicase superfamily and are indispensable for NER activity. […] The XPB mutants were produced a s described in Example 1, herein, and the binding studies with wild type p53 were carried out as described in Example 2, herein.

With “249^Ser: p53 mutant 249Ser, microinjected as CMV expression vector” the “effect of coinjected mutant p53 on induction of apoptosis by wt p53” value [1] was “completely abolished”, the “% apoptotic cells” value [1] was 0(34) % and the “p53 localization (% cells) both” value [1] was 17 % cells. The “p53 localization (% cells) cytoplasmic” value [1] was 77 % cells and the “p53 localization (% cells) nuclei” value [1] was 6 % cells.

“Peptide #464: amino acid residues 464 to 478 of XPB, helicase motif III region (LGLTATLVREDDKIV)” was tested, and the “inhibition of XPB binding to mutant p53” value [2] was “did not inhibit” and the “competition of in vitro-translated XPB from GST-p53” value (shortened to “competition”) ([3]; listed as #464) was “efficiently competed; also recorded: capable of inhibiting the binding”.

For “Peptide #p53cp: amino acid residues 367-387 of human wild type p53 (SHLKSKKGQSTSRHKKLMFKT)”, the “competition” value [3] was “competed; also recorded: capable of inhibiting the binding”.

With “99: non relevant peptide from HBV, residues 100-115 of HBX [compound 99, reference compound]” the “competition” value [3] was “failed to do so; also recorded: enhance binding”.

“479: residues 479 to 493 of XPB (DLNFLIGPKLYEANW) [compound 479, reference compound]” was tested, and the “competition” value [3] was “failed to do so; also recorded: enhance binding”.

“273^His: p53 mutated at codon 273 (Arg→His); expression vector or baculovirus-produced protein” was tested, and the “inhibition of XPD helicase activity of BTF2-TFIIH” value [4] was “No inhibition”, the “effect of coinjected mutant p53 on induction of apoptosis by wt p53” value [1] was “completely abolished” and the “% apoptotic cells” value [1] was 7(30) %. The “% apoptotic cells” value ([1]; listed as 273]^His) was “significantly reduced”, the “p53 localization (% cells) both” value [1] was 73 % cells and the “p53 localization (% cells) cytoplasmic” value [1] was 0 % cells. The “p53 localization (% cells) nuclei” value [1] was 27 % cells and the “inhibition of XPB helicase activity of BTF2-TFIIH” value [5] was “No inhibition”.

In the case of “361 to 393: fragment of the c-terminus of wt p53, amino acid residues 361 to 393”, the “induction of apoptosis by fragments of the c-terminus of wt p53” value ([1]; cells and delivery not stated for the fragments) is reported as “can also induce apoptosis”.

B1: GST-XPB-80/480: GST fused to amino acids 80 to 480 of XPB (protein, UniProt P19447 80-480, looked up, fragment)
chain: PDGHIFLEAFSPVYKYAQDFLVAIAEPVCRPTHVHEYKLTAYSLYAAVSVGLQTSDITEYLRKLSKTGVPDGIMQFIKLCTVSYGKVKLVLKHNRYFVESCHPDVIQHLLQDPVIRECRLRNSEGEATELITETFTSKSAISKTAESSGGPSTSRVTDPQGKSDIPMDLFDFYEQMDKDEEEEEETQTVSFEVKQEMIEELQKRCIHLEYPLLAEYDFRNDSVNPDINIDLKPTAVLRPYQEKSLRKMFGNGRARSGVIVLPCGAGKSLVGVTAACTVRKRCLVLGNSAVSVEQWKAQFKMWSTIDDSQICRFTSDAKDKPIGCSVAISTYSMLGHTTKRSWEAERVMEWLKTQEWGLMILDEVHTIPAKMFRRVLTIVQAHCKLGLTATLVREDDKIVDL
modifications: GST fusion
notes: GST fused to amino acids 80 to 480 of XPB
For B1, the “binding of in vitro-translated human wild-type p53 to GST-XPB protein” value ([6]; GSH-beads loaded with GST-XPB protein) was “significantly less binding”.

B2: ΔC496: XPB deletion mutant terminating at residue 496 (helicase motifs IV, V and VI deleted) (protein)
chain: MGKRDRADRDKKKSRKRHYEDEEDDEEDAPGNDPQEAVPSAAGKQVDESGTKVDEYGAKDYRLQMPLKDDHTSRPLWVAPDGHIFLEAFSPVYKYAQDFLVAIAEPVCRPTHVHEYKLTAYSLYAAVSVGLQTSDITEYLRKLSKTGVPDGIMQFIKLCTVSYGKVKLVLKHNRYFVESCHPDVIQHLLQDPVIRECRLRNSEGEATELITETFTSKSAISKTAESSGGPSTSRVTDPQGKSDIPMDLFDFYEQMDKDEEEEEETQTVSFEVKQEMIEELQKRCIHLEYPLLAEYDFRNDSVNPDINIDLKPTAVLRPYQEKSLRKMFGNGRARSGVIVLPCGAGKSLVGVTAACTVRKRCLVLGNSAVSVEQWKAQFKMWSTIDDSQICRFTSDAKDKPIGCSVAISTYSMLGHTTKRSWEAERVMEWLKTQEWGLMILDEVHTIPAKMFRRVLTIVQAHCKLGLTATLVREDDKIVDLNFLIGPKLYEANWMEL
In the case of B2, the “binding of in vitro-translated XPB deletion mutant to GST-p53-WT” value [6] is reported as “did not alter the binding”.

B3: ΔC354: XPB deletion mutant terminating at residue 354 (helicase motifs Ia to VI deleted) (protein)
chain: MGKRDRADRDKKKSRKRHYEDEEDDEEDAPGNDPQEAVPSAAGKQVDESGTKVDEYGAKDYRLQMPLKDDHTSRPLWVAPDGHIFLEAFSPVYKYAQDFLVAIAEPVCRPTHVHEYKLTAYSLYAAVSVGLQTSDITEYLRKLSKTGVPDGIMQFIKLCTVSYGKVKLVLKHNRYFVESCHPDVIQHLLQDPVIRECRLRNSEGEATELITETFTSKSAISKTAESSGGPSTSRVTDPQGKSDIPMDLFDFYEQMDKDEEEEEETQTVSFEVKQEMIEELQKRCIHLEYPLLAEYDFRNDSVNPDINIDLKPTAVLRPYQEKSLRKMFGNGRARSGVIVLPCGAGKSLVGVTAA
In the case of B3, the “binding of in vitro-translated XPB deletion mutant to GST-p53-WT” value [6] is reported as “completely abolished the binding”.
